Source: ChEMBL document CHEMBL5036351, “Discovery of novel, potent and orally efficacious inhibitor of neutral amino acid transporter B0AT1 (SLC6A19)” (Bioorg Med Chem Lett, 2021)
pIC50: −log10 of the molar value. Each block holds one molecule with its values, some of them ahead of it.

How the values were obtained:
[1] = Inhibition of B0AT1 (unknown origin) by radiolabled uptake assay; design: species or system Homo sapiens
[2] = Inhibition of B0AT1 (unknown origin) by FLIPR assay; design: species or system Homo sapiens
Cytochrome P450 2C8 = biological target: T1, Cytochrome P450 2C8 (Homo sapiens, UniProt P10632); assay: Inhibition of CYP2C8 (unknown origin); type: ADME
T1 sequence (P10632 whole entry): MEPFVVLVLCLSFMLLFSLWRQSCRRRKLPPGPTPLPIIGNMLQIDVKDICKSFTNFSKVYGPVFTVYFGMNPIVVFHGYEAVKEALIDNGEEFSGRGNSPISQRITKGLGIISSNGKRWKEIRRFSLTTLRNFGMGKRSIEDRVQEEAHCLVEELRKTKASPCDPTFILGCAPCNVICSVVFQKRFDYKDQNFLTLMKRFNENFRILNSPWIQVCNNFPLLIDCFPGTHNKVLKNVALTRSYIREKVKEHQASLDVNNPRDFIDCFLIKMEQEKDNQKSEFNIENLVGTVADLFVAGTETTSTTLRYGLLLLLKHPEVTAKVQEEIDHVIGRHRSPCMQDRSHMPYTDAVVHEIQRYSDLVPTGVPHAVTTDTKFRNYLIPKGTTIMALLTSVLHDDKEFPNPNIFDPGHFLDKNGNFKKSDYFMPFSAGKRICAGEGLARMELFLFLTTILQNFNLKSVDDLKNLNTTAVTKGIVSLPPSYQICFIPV

[3] = Clearance in C57BL/6 mouse at 1 mg/kg, iv; type: ADME, organism-based; settings: in vivo
[4] = Metabolic stability in mouse liver microsomes; type: ADME, Microsome
[5] = MRT in C57BL/6 mouse at 3 mg/kg, po; type: ADME, organism-based; settings: in vivo
[6] = Cmax in C57BL/6 mouse at 3 mg/kg, po; type: ADME, organism-based; design: route oral, dose 3 mg/kg; settings: in vivo
[7] = Tmax in C57BL/6 mouse at 3 mg/kg, po; type: ADME, organism-based; settings: in vivo
[8] = Half life in C57BL/6 mouse at 1 mg/kg, iv; type: ADME, organism-based; settings: in vivo
[9] = Metabolic stability in dog liver microsomes; type: ADME, Canis lupus familiaris, Microsome
Cytochrome P450 2C9 = Cytochrome P450 2C9 (Homo sapiens, UniProt P11712); assay: Inhibition of CYP2C9 (unknown origin); type: ADME
[10] = Initial plasma concentration in C57BL/6 mouse at 1 mg/kg, iv; type: ADME, organism-based
[11] = MRT in C57BL/6 mouse at 1 mg/kg, iv; type: ADME, organism-based; settings: in vivo
[12] = AUC (0 to t) in C57BL/6 mouse at 1 mg/kg, iv; type: ADME, organism-based; design: dose 1 mg/kg; settings: in vivo
[13] = Metabolic stability in human liver microsomes; type: ADME, Microsome
Mus musculus [14] = assay: Anti-obesity activity in C57BL/6J mouse model of diet-induced obesity assessed as reduction in area under curve at 25 mg/kg, po dosed once daily for 28 days by insulin tolerance test; type: functional; design: scale not given: the % may be the effect or the level left; settings: time 28 day
Cytochrome P450 3A4 = Cytochrome P450 3A4 (Homo sapiens, UniProt P08684); assay: Inhibition of CYP3A4 (unknown origin); type: ADME
[15] = Half life in C57BL/6 mouse at 3 mg/kg, po; type: ADME, organism-based; settings: in vivo
Mus musculus [16] = assay: Anti-obesity activity in high fat diet induced C57BL/6J mouse model assessed as change in body weight at 25 mg/kg, po dosed once daily for 28 days; type: functional; settings: time 28 day
[17] = Volume of distribution at steady state in C57BL/6 mouse at 1 mg/kg, iv; type: ADME, organism-based; settings: in vivo, read-out: Vdss
[18] = Bioavailability in C57BL/6 mouse at 1 mg/kg, iv; type: ADME, organism-based; settings: in vivo
Cytochrome P450 2C19 = Cytochrome P450 2C19 (Homo sapiens, UniProt P33261); assay: Inhibition of CYP2C19 (unknown origin); type: ADME
[19] = AUC (0 to t) in C57BL/6 mouse at 3 mg/kg, po; type: ADME, organism-based; design: dose 3 mg/kg; settings: in vivo
[20] = Metabolic stability in rat liver microsomes; type: ADME, Microsome

Sequence of Cytochrome P450 2C9 (P11712 whole entry): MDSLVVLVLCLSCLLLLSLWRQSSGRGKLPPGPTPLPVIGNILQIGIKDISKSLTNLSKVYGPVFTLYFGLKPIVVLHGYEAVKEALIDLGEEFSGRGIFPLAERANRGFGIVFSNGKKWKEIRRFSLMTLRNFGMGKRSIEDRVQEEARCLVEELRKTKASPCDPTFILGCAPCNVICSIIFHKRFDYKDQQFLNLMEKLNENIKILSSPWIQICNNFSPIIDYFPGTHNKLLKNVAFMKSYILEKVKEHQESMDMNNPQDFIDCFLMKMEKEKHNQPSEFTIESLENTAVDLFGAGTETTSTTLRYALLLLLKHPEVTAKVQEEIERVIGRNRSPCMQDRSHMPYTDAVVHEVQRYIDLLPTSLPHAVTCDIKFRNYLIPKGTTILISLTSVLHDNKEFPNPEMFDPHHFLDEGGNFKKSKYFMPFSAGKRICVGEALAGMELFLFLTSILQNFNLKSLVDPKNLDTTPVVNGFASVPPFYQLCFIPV
Sequence of Cytochrome P450 2C19 (P33261 whole entry): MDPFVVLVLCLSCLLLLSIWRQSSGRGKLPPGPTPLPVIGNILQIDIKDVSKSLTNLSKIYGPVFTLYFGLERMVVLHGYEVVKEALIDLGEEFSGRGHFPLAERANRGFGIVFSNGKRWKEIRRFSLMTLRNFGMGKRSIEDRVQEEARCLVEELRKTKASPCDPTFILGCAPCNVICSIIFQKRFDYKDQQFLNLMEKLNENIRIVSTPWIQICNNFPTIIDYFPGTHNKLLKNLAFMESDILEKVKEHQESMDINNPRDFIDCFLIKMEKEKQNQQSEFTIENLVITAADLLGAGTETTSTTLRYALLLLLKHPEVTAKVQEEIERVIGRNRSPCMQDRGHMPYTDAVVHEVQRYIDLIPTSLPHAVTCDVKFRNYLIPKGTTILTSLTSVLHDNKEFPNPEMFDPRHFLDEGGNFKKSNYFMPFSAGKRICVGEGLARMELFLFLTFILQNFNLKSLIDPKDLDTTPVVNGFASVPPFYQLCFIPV
Sequence of Cytochrome P450 3A4 (P08684 whole entry): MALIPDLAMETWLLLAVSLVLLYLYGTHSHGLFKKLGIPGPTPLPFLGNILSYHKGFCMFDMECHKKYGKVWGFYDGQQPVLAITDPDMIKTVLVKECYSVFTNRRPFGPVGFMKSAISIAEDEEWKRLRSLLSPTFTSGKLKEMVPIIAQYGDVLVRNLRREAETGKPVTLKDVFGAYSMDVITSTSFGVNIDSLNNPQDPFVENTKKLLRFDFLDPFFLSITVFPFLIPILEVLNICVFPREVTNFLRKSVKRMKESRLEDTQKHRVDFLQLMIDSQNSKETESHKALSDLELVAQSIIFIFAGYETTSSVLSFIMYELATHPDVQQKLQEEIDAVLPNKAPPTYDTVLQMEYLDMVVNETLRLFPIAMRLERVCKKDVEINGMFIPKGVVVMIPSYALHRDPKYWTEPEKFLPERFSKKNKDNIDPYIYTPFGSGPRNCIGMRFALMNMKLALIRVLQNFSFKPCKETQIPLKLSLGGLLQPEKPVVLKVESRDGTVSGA

pIC50 [1]: 4.15
pIC50 [2]: 4.36
Compound: CN1C2CCC1CC(OC(c1ccccc1)c1ccccc1)C2 (configuration not stated)

pIC50 [1]: < 6.00
Compound: O=S(=O)(Nc1ccc(S(=O)(=O)C(F)(F)F)cc1Oc1ccc(Cl)cc1)c1ccccc1

pIC50 [1]: 6.16
Compound: O=S(=O)(Nc1ccc(S(=O)(=O)C(F)(F)F)cc1Nc1ccccc1)c1ccccc1

pIC50 [1]: < 6.00
Compound: COc1ccc(Oc2cc(S(=O)(=O)C(F)(F)F)ccc2NS(=O)(=O)c2ccccc2)cc1OC

pIC50 [1]: < 5.00
Compound: CS(=O)(=O)c1ccc(NS(=O)(=O)c2ccccc2)c(Oc2ccccc2)c1

pIC50 [1]: 6.22
Compound: COc1ccc(Oc2cc(S(=O)(=O)C(F)(F)F)ccc2NS(=O)(=O)c2ccccc2)cc1

pIC50 [1]: 6.34
Compound: COc1cccc(Oc2cc(S(=O)(=O)C(F)(F)F)ccc2NS(=O)(=O)c2ccccc2)c1

pIC50 [1]: 6.72
Compound: O=S(=O)(Nc1ccc(S(=O)(=O)C(F)(F)F)cc1Oc1ccccc1)c1ccccc1

pIC50 [1]: < 5.00
Compound: N=C(NO)c1ccc(NS(=O)(=O)c2ccccc2)c(Oc2ccccc2)c1

pIC50 [1]: < 6.00
Compound: N#Cc1ccc(Oc2cc(S(=O)(=O)C(F)(F)F)ccc2NS(=O)(=O)c2ccccc2)cc1

pIC50 [1]: 6.00
Compound: Cc1cccc(Oc2cc(S(=O)(=O)C(F)(F)F)ccc2NS(=O)(=O)c2ccccc2)c1

pIC50 [1]: < 6.00
Compound: NC(c1ccccc1)c1cc(S(=O)(=O)C(F)(F)F)ccc1NS(=O)(=O)c1ccccc1 (configuration not stated)

pIC50 [1]: 6.00
Compound: O=S(=O)(Nc1ccc(S(=O)(=O)C(F)(F)F)cc1Oc1ccc(Cl)c(Cl)c1)c1ccccc1

pIC50 [1]: < 6.00
Compound: Cc1ccc(Oc2cc(S(=O)(=O)C(F)(F)F)ccc2NS(=O)(=O)c2ccccc2)cc1

pIC50 [1]: < 5.00
Compound: N=C(N)c1ccc(NS(=O)(=O)c2ccccc2)c(Oc2ccccc2)c1

pIC50 [1]: 6.36
Compound: Cc1cc(C)cc(Oc2cc(S(=O)(=O)C(F)(F)F)ccc2NS(=O)(=O)c2ccccc2)c1

pIC50 [1]: 5.41
pIC50 [2]: 5.72
Compound: Cc1cc(C(=O)Nc2ccc(Cl)cc2C(F)(F)F)no1

pIC50 [1]: 7.46
inhibition (INH) (Cytochrome P450 2C8): Active
clearance [3]: 1.01 mL/min/kg
Stability [4]: Stable
MRT [5]: 6.73 h
Cmax [6]: 3770 ng/mL
Tmax [7]: 2 h
half-life [8]: 4.05 h
Stability [9]: Stable
inhibition (INH) (Cytochrome P450 2C9): Active
C0 [10]: 6680 ng/mL
MRT [11]: 5.74 h
AUC(0-t) [12]: 16200 ng·h/mL
Stability [13]: Stable
inhibition (INH) (Cytochrome P450 3A4): Active
half-life [15]: 5.39 h
Vd [17]: 0.35 L/kg
bioavailability [18]: 64%
inhibition (INH) (Cytochrome P450 2C19): Active
AUC(0-t) [19]: 31300 ng·h/mL
Stability [20]: Stable
Compound: O=S(=O)(Nc1ccc(S(=O)(=O)C(F)(F)F)cc1Oc1cc(F)cc(F)c1)c1ccccc1
Activity (Mus musculus [14]): 22.9%
Activity (Mus musculus [16]): -8.9%

pIC50 [1]: 6.10
Compound: O=S(=O)(Nc1ccc(S(=O)(=O)C(F)(F)F)cc1Sc1ccccc1)c1ccccc1

pIC50 [1]: < 6.00
Compound: O=S(=O)(Nc1ccc(S(=O)(=O)C(F)(F)F)cc1Oc1cccc(Cl)c1)c1ccccc1

pIC50 [1]: 6.70
Compound: O=S(=O)(Nc1ccc(S(=O)(=O)C(F)(F)F)cc1Oc1ccc(F)cc1)c1ccccc1

pIC50 [1]: < 6.00
Compound: CN(C)c1cccc(Oc2cc(S(=O)(=O)C(F)(F)F)ccc2NS(=O)(=O)c2ccccc2)c1

pIC50 [1]: 6.49
Compound: O=S(=O)(Nc1ccc(S(=O)(=O)C(F)(F)F)cc1C(O)c1ccccc1)c1ccccc1 (configuration not stated)

pIC50 [1]: 6.00
Compound: O=S(=O)(Nc1ccc(S(=O)(=O)C(F)(F)F)cc1OCc1ccccc1)c1ccccc1

Compound: c1ccc(CCCN2CCCCC2Cc2ccccc2)cc1 (configuration not stated)
pIC50 [1]: 4.11
pIC50 [2]: 4.05

pIC50 [1]: < 5.00
Compound: COC(=O)c1ccc(NS(=O)(=O)c2ccccc2)c(Oc2ccccc2)c1

pIC50 [1]: < 6.00
Compound: O=S(=O)(Nc1ccc(S(=O)(=O)C(F)(F)F)cc1S(=O)(=O)c1ccccc1)c1ccccc1

pIC50 [1]: < 5.00
Compound: N#Cc1ccc(NS(=O)(=O)c2ccccc2)c(Oc2ccccc2)c1

pIC50 [1]: < 5.00
Compound: O=S(=O)(Nc1ccc(F)cc1Oc1ccccc1)c1ccccc1

pIC50 [1]: < 6.00
Compound: O=C(Nc1ccccc1)c1cc(S(=O)(=O)C(F)(F)F)ccc1NS(=O)(=O)c1ccccc1

pIC50 [1]: 7.05
Compound: O=S(=O)(Nc1ccc(S(=O)(=O)C(F)(F)F)cc1Oc1ccc(F)c(F)c1)c1ccccc1

pIC50 [1]: 4.80
pIC50 [2]: 4.70
Compound: COc1ccc(C(CCCN2CCOCC2)c2ccc(C)cc2)cc1 (configuration not stated)

pIC50 [1]: < 5.00
Compound: O=C(O)c1ccc(NS(=O)(=O)c2ccccc2)c(Oc2ccccc2)c1

pIC50 [1]: 6.82
Compound: O=S(=O)(Nc1ccc(S(=O)(=O)C(F)(F)F)cc1Oc1cccc(F)c1)c1ccccc1

pIC50 [1]: 6.43
Compound: O=S(=O)(Nc1ccc(S(=O)(=O)C(F)(F)F)cc1-c1ccccc1)c1ccccc1

pIC50 [1]: 6.22
Compound: O=C(c1ccccc1)c1cc(S(=O)(=O)C(F)(F)F)ccc1NS(=O)(=O)c1ccccc1

pIC50 [1]: < 6.00
Compound: O=S(=O)(Nc1ccc(S(=O)(=O)C(F)(F)F)cc1OC1CCCCC1)c1ccccc1

pIC50 [1]: 6.70
Compound: O=[N+]([O-])c1ccc(NS(=O)(=O)c2ccccc2)c(Oc2ccccc2)c1

pIC50 [1]: < 5.00
Compound: O=C(NO)c1ccc(NS(=O)(=O)c2ccccc2)c(Oc2ccccc2)c1

pIC50 [1]: < 5.00
Compound: NC(=O)c1ccc(NS(=O)(=O)c2ccccc2)c(Oc2ccccc2)c1

pIC50 [1]: < 6.00
Compound: O=S(=O)(Nc1ccc(S(=O)(=O)C(F)(F)F)cc1Oc1cccnc1)c1ccccc1

pIC50 [1]: < 5.00
Compound: O=S(=O)(Nc1ccc(S(=O)(=O)C(F)F)cc1Oc1ccccc1)c1ccccc1

pIC50 [1]: 7.00
Compound: COc1cc(F)cc(Oc2cc(S(=O)(=O)C(F)(F)F)ccc2NS(=O)(=O)c2ccccc2)c1

pIC50 [1]: < 5.00
Compound: O=S(=O)(Nc1ccc(-c2nn[nH]n2)cc1Oc1ccccc1)c1ccccc1

pIC50 [1]: < 5.00
Compound: O=S(=O)(Nc1ccc(C(F)(F)F)cc1Oc1ccccc1)c1ccccc1

pIC50 [1]: 6.28
Compound: O=S(=O)(Nc1ccc(S(=O)(=O)C(F)(F)F)cc1Oc1ccc(C(F)(F)F)cc1)c1ccccc1

pIC50 [1]: 6.43
pIC50 [2]: 6.55
Compound: CCNC(=O)/C=C/c1cccc(Br)c1 [CINROMIDE]

pIC50 [1]: 4.64
Compound: CS(=O)(=O)Nc1ccc([N+](=O)[O-])cc1Oc1ccccc1 [NIMESULIDE]

Compound: CCc1ccc(CCOc2ccc(CC3SC(=O)NC3=O)cc2)nc1 (configuration not stated) [PIOGLITAZONE]
Activity (Mus musculus [14]): -36%
Activity (Mus musculus [16]): 6%
